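Values below derive from 48-hour exposures of cells grown in 96-well plates, with endpoints linearly interpolated between the two concentrations bracketing the appropriate inhibition level. Here, GI50 denotes the concentration required for 50% inhibition of growth. TGI: total growth inhibition.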 A value given as a limit tells only on which side of the number the result lay.

Drawing on PubChem BioAssay (NCI), this text covers GI50 and TGI for 27 compounds.

Common to all, as to assay: inhibition of tumour cell growth, NCI panel, 48 h
Assay [1] has as its system PC-3 prostate.
In assay [2] the test system is MCF7 breast.
The test system of assay [3] is HCT-116 colon.
Assay [4] has as its system BT-549 breast.
For assay [5], the system named is T-47D breast.
In assay [6] the test system is DU-145 prostate.

With `O=C(O)Cn1ccc2ccccc21`, the GI50 in assay [1], in assay [2], in assay [3], in assay [4], in assay [5] and in assay [6] was > 100 µM throughout. Besides, the TGI in assay [1], in assay [2], in assay [3], in assay [4], in assay [5] and in assay [6] was > 100 µM each time.
Take `CCCCN1C(=O)/C(=c2\sc3n(c2=O)C2C(NN=3)N(CC)C(=O)N2CC)c2ccccc21` (centres undefined): in assay [4], the GI50 was 1.76 µM and the TGI stood at 9.19 µM.
Take `CC(C)(C)c1nc(-c2cccc(NS(=O)(=O)c3c(F)cccc3F)c2F)c(-c2ccnc(N)n2)s1`: the GI50 in assay [1] was 41.3 µM; in assay [2], 27.3 µM; in assay [3] it was 20.4 µM; in assay [4], 37.5 µM; in assay [5], 25.9 µM; in assay [6], 58.5 µM. In addition, the TGI was > 100 µM in assay [1]; > 100 µM in assay [2]; > 100 µM in assay [3]; > 72.1 µM in assay [4]; 99 µM in assay [5]; > 100 µM in assay [6].
As for `O=C1Nc2ccccc2/C1=C/c1cn(CC(O)Cn2cc(/C=C3\C(=O)Nc4ccccc43)c3ccccc32)c2ccccc12` (centres undefined), the GI50 is 1.21 µM in assay [1], 1.66 µM in assay [3] and 1.55 µM in assay [6]. Moreover, the TGI in assay [1] was found to be 2.66 µM; in assay [3], 4.13 µM; in assay [6], 2.95 µM.
For `COc1ccc(-c2nn3ncccc3c2-c2ccnc(Nc3ccc4c(c3)OCCO4)n2)cc1`, the GI50 in assay [1] was 9.12 µM; in assay [2], 13.8 µM; in assay [3] it was 8.16 µM; in assay [4] it was 12.8 µM; in assay [5], 4.58 µM; in assay [6], 8.19 µM. Besides, the TGI in assay [1], in assay [2], in assay [3], in assay [4], in assay [5] and in assay [6] was > 25 µM each time.
With `NC(CSC(c1ccccc1)(c1ccccc1)c1ccc(F)cc1)C(=O)O` (centres undefined), the GI50 in assay [1] is 0.4 µM; in assay [2], 0.344 µM; in assay [3], 0.381 µM; in assay [4], 1.64 µM; in assay [5], 0.365 µM; in assay [6], 0.815 µM. In addition, the TGI was > 35.9 µM in assay [1]; > 100 µM in assay [2]; > 34.6 µM in assay [3]; 86.8 µM in assay [4]; 25.5 µM in assay [5]; 4.05 µM in assay [6].
On to `COc1cc2nc(-c3cccc4cccnc34)nc(NC3CCN(Cc4ccccc4)CC3)c2cc1OC`, for which the GI50 in assay [1] was 1.36 µM; in assay [3] it was 0.158 µM; in assay [4], 1.58 µM; in assay [6], 1.28 µM. Moreover, the TGI is 2.83 µM in assay [1], 0.338 µM in assay [3], 3.36 µM in assay [4] and 2.59 µM in assay [6].
On to `Oc1c(O)c(Cl)c(Cl)c(Cl)c1Cl`, for which the GI50 in assay [1] was 3.43 µM; in assay [2], 3.25 µM; in assay [3] it was 2.88 µM; in assay [4] it was 4.51 µM; in assay [5], 3.26 µM; in assay [6], 7.1 µM. For the same compound, the TGI is 18.1 µM in assay [1]; 16.2 µM in assay [2]; 8.75 µM in assay [3]; 31.5 µM in assay [4]; 11.3 µM in assay [5]; > 100 µM in assay [6].
In the case of `C=C(CN1c2ccccc2Sc2ccccc21)c1ccc(C(=O)Nc2ccccc2N)cc1`, the GI50 is 5.07 µM in assay [1]; > 42 µM in assay [2]; 11.1 µM in assay [3]; > 27.3 µM in assay [4]; 6.14 µM in assay [5]; > 100 µM in assay [6]. For the same compound, the TGI in assay [1], in assay [2], in assay [3], in assay [4], in assay [5] and in assay [6] was > 100 µM throughout.
For the compound `CCc1nn2ncccc2c1-c1ccnc(NC2CC2)n1`, the GI50 in assay [1], in assay [2], in assay [3], in assay [4], in assay [5] and in assay [6] was > 25 µM in each case. Further, the TGI in assay [1], in assay [2], in assay [3], in assay [4], in assay [5] and in assay [6] was > 25 µM throughout.
In the case of `CC[C@@H](O)C[C@H]1CCC[C@@]2(C[C@@H]3OC(=O)/C=C/[C@@](C)(O)[C@@H](O)[C@H](C)[C@@H](O)[C@H](OC4CCC(N(C)C)C(C)O4)[C@@H](O)[C@](C)(O)CCCCC/C=C/[C@@H]4CC(C)(C)O[C@@]4(O)C[C@H](O2)[C@H]3C)O1` (some centres undefined), the TGI in assay [1] worked out at 15.7 µM; in assay [2] it was 15.6 µM; in assay [3] it was 26.2 µM; in assay [4] it was 29.2 µM; in assay [5] it was 26.3 µM; in assay [6] it was 24.1 µM.
In the case of `Nc1ccc(-c2ccc3ncc4ccc(=O)n(-c5cccc(C(F)(F)F)c5)c4c3c2)cn1`, the GI50 was < 0.01 µM in assay [1]; < 0.01 µM in assay [2]; 0.0135 µM in assay [3]; < 0.01 µM in assay [4]; < 0.01 µM in assay [5]; < 0.01 µM in assay [6]. Also, the TGI in assay [1] is 5.38 µM; in assay [2], 12.8 µM; in assay [3], 1.41 µM; in assay [4], 0.232 µM; in assay [5] it was < 0.01 µM; in assay [6] it was 30.8 µM.
For the compound `COc1ccc2[nH]c(C(=O)OCc3ccc4cccc(O)c4n3)cc2c1`, the GI50 was 0.247 µM in assay [1]; 0.723 µM in assay [2]; 0.39 µM in assay [3]; 1.69 µM in assay [4]; 1.53 µM in assay [6]. The TGI in assay [1] turned out to be 1.32 µM; in assay [2], 2.79 µM; in assay [3] it was 1.85 µM; in assay [4], 3.74 µM; in assay [6], 2.93 µM.
Consider `Cc1ccc(O)c(NC2=C(Cl)C(=O)N(Cc3ccccc3)C2=O)c1`, for which the GI50 in assay [1] was 38.7 µM; in assay [2], 16.2 µM; in assay [3], 31.2 µM; in assay [4], 18.1 µM; in assay [5], 39 µM; in assay [6], 27.8 µM. In addition, the TGI is > 100 µM in assay [1]; 48.8 µM in assay [2]; > 100 µM in assay [3]; 67.3 µM in assay [4]; > 100 µM in assay [5]; 95.9 µM in assay [6].
Take `OC(COc1ccccc1)CN1CCCCC1` (centres undefined): the TGI in assay [1], in assay [2], in assay [3], in assay [4], in assay [5] and in assay [6] was > 100 µM in each case.
For the compound `COc1ccc2nc3cccc([N+](=O)[O-])c3c(NCCNCCN(C)C)c2c1`, the TGI was 0.293 µM in assay [1]; 0.221 µM in assay [2]; 12 µM in assay [3]; 1.06 µM in assay [4]; 7.93 µM in assay [5]; 0.909 µM in assay [6]. In addition, the GI50 was 0.0192 µM in assay [2]; 0.25 µM in assay [3]; 0.418 µM in assay [4]; 0.168 µM in assay [5]; 0.0374 µM in assay [6].
Take `CCN(CC)c1nc(NC2CCCCC2)c2nc(N(CC)CC)nc(NC3CCCCC3)c2n1`: the TGI in assay [1], in assay [2], in assay [3], in assay [4], in assay [5] and in assay [6] was > 100 µM each time.
With `Nc1nc2c(ccc3ccccc32)s1`, the GI50 is 33.7 µM in assay [1]; 78.7 µM in assay [2]; > 100 µM in assay [3]; > 100 µM in assay [4]; 95.5 µM in assay [5]; > 100 µM in assay [6]. Also, the TGI in assay [1], in assay [2], in assay [3], in assay [4], in assay [5] and in assay [6] was > 100 µM each time.
For `COc1ccc2c(c1)O/C(=C\c1cccc(OCC(=O)Nc3nc(C)c(C)s3)c1)C2=O`, the GI50 in assay [1] is 0.821 µM; in assay [2], 3.17 µM; in assay [3], 5.53 µM; in assay [4], 16.7 µM; in assay [5] it was 8.76 µM; in assay [6], 0.189 µM. The TGI is 50.1 µM in assay [2]; > 53.3 µM in assay [3]; 55.2 µM in assay [4]; > 100 µM in assay [5]; 0.404 µM in assay [6].
Regarding `CC12OC(C(=O)C13CCC3)C1C(=O)c3ccc4c(ccc5ccccc54)c3C(=O)C12` (centres undefined), the GI50 in assay [1] is 7.61 µM; in assay [2], 5.1 µM; in assay [3], 11.4 µM; in assay [4], 18.3 µM; in assay [5], 3.22 µM. Further, the TGI in assay [1] was 28.8 µM; in assay [2], 30.7 µM; in assay [3], 24.8 µM; in assay [4] it was 48.4 µM; in assay [5], 11.2 µM.
For the compound `COc1cc(-c2cc3ncccc3c3[nH]c(=O)c4cccnc4c23)cc(OC)c1OC`, the GI50 in assay [1] is 0.858 µM; in assay [2], 0.394 µM; in assay [4] it was 0.427 µM; in assay [5] it was 0.789 µM; in assay [6], 0.907 µM. The TGI is > 100 µM in assay [1]; > 100 µM in assay [2]; 55.2 µM in assay [4]; > 100 µM in assay [5]; > 100 µM in assay [6].
On to `CCN(CC)c1ccc2nc3ccc(N=Nc4ccc(O)cc4)cc3[n+](-c3ccccc3)c2c1`, for which the GI50 in assay [2] was 1.9 µM; in assay [3], 2.66 µM; in assay [4] it was 10.5 µM; in assay [5], 3.6 µM; in assay [6] it was 4.68 µM. Moreover, the TGI is 5.11 µM in assay [2]; 10.6 µM in assay [3]; 31.8 µM in assay [4]; 84.1 µM in assay [5]; 16.7 µM in assay [6].
Take `Cc1cn2c(/C=N/N=C(N)N)c(-c3ccncc3)nc2s1`: the GI50 in assay [1] is 18.8 µM; in assay [3], 10.7 µM; in assay [5], 16.2 µM; in assay [6], 16.4 µM. The TGI is 32.8 µM in assay [1], 22.5 µM in assay [3], 31.6 µM in assay [5] and 31.2 µM in assay [6].
With `COc1cc(NC(C)CCCNC(C)C)c2ncccc2c1OC` (centres undefined), the GI50 in assay [2] is 29.6 µM; in assay [3], 27.8 µM; in assay [5] it was 17 µM; in assay [6], > 100 µM. In addition, the TGI in assay [2], in assay [3], in assay [5] and in assay [6] was > 100 µM in each case.
`COc1ccc(-c2nc(N)c(C#N)c3c2CCOc2c-3ccc3ccccc23)cc1`: the GI50 in assay [1] is 22 µM; in assay [2], 20.2 µM; in assay [3] it was 54.3 µM; in assay [5] it was 22.8 µM. Besides, the TGI in assay [1], in assay [2], in assay [3] and in assay [5] was > 100 µM throughout.
For `COc1cc(CN(c2ccc(C)cc2)C2OC(=O)c3ccccc32)cc(OC)c1OC` (centres undefined), the GI50 is 0.432 µM in assay [1]; 0.339 µM in assay [2]; 0.501 µM in assay [3]; 0.727 µM in assay [4]; 0.491 µM in assay [6]. Besides, the TGI is > 100 µM in assay [1]; > 100 µM in assay [2]; > 100 µM in assay [3]; 99.3 µM in assay [4]; > 76.6 µM in assay [6].
With `COc1ccc(-c2n[nH]nc2-c2cc(OC)c3c(c2)OCO3)cc1`, the GI50 in assay [1] was 0.0384 µM; in assay [2], < 0.01 µM; in assay [3], 0.017 µM; in assay [4], 0.0847 µM; in assay [6] it was 0.0328 µM. Besides, the TGI in assay [1] is > 100 µM; in assay [2], > 82.3 µM; in assay [4], 28.9 µM; in assay [6], 1.19 µM.
